In ChEMBL document CHEMBL3091289, “Design of fluorinated 5-HT(4)R antagonists: influence of the basicity and lipophilicity toward the 5-HT(4)R binding affinities” (Bioorg Med Chem, 2013):

Legend:
[1] = biological target: 5-hydroxytryptamine receptor 4 (Cavia porcellus) (UniProt O70528); assay: Displacement of [3H]GR113808 from 5HT4R in guinea pig striatal membranes at 10^-6 M; type: cell membranes; conditions: Striatum, Membrane
[2] = biological target: 5-hydroxytryptamine receptor 4 (Cavia porcellus) (UniProt O70528); assay: Displacement of [3H]GR113808 from 5HT4R in guinea pig striatal membranes at 10^-8 M; type: cell membranes; conditions: Striatum, Membrane
[3] = biological target: 5-hydroxytryptamine receptor 1D (Homo sapiens, UniProt P28221); assay: Binding affinity to human 5HT1D
[4] = biological target: T1, 5-hydroxytryptamine receptor 2C (Homo sapiens, UniProt P28335); assay: Binding affinity to human 5HT2C
T1 sequence (P28335 whole entry): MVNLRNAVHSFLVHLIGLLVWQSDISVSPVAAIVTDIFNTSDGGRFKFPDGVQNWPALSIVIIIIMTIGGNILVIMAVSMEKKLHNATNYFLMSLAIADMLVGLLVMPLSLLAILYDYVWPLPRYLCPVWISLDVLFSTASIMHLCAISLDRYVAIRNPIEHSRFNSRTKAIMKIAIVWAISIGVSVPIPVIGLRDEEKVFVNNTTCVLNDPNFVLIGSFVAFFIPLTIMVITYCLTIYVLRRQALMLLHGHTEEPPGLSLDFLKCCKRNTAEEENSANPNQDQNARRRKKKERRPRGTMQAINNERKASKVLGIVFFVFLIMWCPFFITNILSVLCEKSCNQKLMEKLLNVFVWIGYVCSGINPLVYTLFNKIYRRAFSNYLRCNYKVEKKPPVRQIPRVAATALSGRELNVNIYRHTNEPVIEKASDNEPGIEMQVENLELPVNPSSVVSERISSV

[5] = biological target: 5-hydroxytryptamine receptor 6 (Homo sapiens, UniProt P50406); assay: Binding affinity to human 5HT6
[6] = biological target: 5-hydroxytryptamine receptor 4 (Cavia porcellus, UniProt O70528); assay: Displacement of [3H]GR113808 from 5HT4R in guinea pig striatal membranes; type: cell membranes, Striatum, Membrane
[7] = biological target: 5-hydroxytryptamine receptor 2B (Homo sapiens, UniProt P41595); assay: Binding affinity to human 5HT2B
[8] = biological target: 5-hydroxytryptamine receptor 1B (Homo sapiens, UniProt P28222); assay: Binding affinity to human 5HT1B
[9] = biological target: T2, 5-hydroxytryptamine receptor 1A (Homo sapiens, UniProt P08908); assay: Binding affinity to human 5HT1A
T2 sequence (P08908 whole entry): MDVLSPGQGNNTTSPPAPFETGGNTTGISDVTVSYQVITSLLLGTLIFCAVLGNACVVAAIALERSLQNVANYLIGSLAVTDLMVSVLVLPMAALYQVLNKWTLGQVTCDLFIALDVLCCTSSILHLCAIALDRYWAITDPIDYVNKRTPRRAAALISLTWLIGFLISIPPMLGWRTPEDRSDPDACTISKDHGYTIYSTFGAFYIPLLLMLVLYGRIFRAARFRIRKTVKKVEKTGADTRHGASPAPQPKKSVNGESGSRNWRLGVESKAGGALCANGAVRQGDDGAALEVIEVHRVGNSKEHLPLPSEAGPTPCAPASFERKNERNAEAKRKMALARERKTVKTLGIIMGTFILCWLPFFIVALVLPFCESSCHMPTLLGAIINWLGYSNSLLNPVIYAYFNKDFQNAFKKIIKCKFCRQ

[10] = biological target: 5-hydroxytryptamine receptor 7 (Homo sapiens, UniProt P34969); assay: Binding affinity to human 5HT7
[11] = biological target: 5-hydroxytryptamine receptor 2A (Homo sapiens, UniProt P28223); assay: Binding affinity to human 5HT2A
[12] = biological target: T3, 5-hydroxytryptamine receptor 4 (Homo sapiens, UniProt Q13639); assay: Intrinsic activity at human 5HT4R
[13] = biological target: T3, 5-hydroxytryptamine receptor 4; assay: Binding affinity to human 5HT4R
[14] = biological target: T4, 5-hydroxytryptamine receptor 3A (Homo sapiens, UniProt P46098); assay: Binding affinity to human 5HT3
T4 sequence (P46098 whole entry): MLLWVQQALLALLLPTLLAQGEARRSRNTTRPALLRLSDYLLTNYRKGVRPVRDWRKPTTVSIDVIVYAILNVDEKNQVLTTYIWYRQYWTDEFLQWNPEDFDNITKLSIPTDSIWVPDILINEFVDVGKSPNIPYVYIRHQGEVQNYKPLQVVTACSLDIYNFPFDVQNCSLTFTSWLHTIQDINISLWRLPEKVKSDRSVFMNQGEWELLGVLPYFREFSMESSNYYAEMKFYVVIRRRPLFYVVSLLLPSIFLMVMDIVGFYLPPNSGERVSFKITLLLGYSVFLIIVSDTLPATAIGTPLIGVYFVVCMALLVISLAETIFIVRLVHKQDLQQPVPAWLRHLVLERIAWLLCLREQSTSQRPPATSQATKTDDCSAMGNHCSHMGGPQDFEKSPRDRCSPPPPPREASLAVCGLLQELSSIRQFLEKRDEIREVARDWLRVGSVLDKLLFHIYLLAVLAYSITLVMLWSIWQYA

[15] = biological target: 5-hydroxytryptamine receptor 5A (Homo sapiens, UniProt P47898); assay: Binding affinity to human 5HT5A
5-hydroxytryptamine receptor 5A, sequence (P47898 whole entry): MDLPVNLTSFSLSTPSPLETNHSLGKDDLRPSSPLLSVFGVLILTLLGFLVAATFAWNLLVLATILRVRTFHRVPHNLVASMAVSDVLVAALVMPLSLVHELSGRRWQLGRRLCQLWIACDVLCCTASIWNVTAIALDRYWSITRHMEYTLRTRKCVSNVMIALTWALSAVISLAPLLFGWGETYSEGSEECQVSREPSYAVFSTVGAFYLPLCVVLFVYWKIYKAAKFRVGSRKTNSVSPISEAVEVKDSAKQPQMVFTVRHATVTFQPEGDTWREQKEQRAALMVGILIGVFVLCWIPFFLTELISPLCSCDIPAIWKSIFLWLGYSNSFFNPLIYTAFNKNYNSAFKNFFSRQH

T3 sequence (Q13639 whole entry): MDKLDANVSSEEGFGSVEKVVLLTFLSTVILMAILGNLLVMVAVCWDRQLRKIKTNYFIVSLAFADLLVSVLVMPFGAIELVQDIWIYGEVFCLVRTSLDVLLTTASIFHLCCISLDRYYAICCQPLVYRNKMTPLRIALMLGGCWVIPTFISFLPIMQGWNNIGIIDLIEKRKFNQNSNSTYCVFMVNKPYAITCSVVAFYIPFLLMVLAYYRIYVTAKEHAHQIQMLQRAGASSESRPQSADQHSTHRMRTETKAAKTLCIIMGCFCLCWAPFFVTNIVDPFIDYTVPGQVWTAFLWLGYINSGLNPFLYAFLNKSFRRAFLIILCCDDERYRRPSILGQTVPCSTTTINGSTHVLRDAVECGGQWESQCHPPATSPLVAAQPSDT
5-hydroxytryptamine receptor 4 (Cavia porcellus, UniProt O70528), sequence (O70528 whole entry): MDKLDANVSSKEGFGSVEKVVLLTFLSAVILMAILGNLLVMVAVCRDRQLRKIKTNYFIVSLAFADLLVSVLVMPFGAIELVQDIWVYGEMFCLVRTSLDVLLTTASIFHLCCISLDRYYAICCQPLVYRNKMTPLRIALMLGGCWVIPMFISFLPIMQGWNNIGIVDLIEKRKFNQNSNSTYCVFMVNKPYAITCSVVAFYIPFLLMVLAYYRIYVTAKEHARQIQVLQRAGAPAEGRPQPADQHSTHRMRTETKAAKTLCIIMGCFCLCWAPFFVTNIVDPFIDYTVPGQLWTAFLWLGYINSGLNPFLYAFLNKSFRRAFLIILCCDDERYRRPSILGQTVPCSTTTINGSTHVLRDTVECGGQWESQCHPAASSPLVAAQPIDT
5-hydroxytryptamine receptor 4 (Cavia porcellus), sequence (O70528 whole entry): as above
5-hydroxytryptamine receptor 2B, sequence (P41595 whole entry): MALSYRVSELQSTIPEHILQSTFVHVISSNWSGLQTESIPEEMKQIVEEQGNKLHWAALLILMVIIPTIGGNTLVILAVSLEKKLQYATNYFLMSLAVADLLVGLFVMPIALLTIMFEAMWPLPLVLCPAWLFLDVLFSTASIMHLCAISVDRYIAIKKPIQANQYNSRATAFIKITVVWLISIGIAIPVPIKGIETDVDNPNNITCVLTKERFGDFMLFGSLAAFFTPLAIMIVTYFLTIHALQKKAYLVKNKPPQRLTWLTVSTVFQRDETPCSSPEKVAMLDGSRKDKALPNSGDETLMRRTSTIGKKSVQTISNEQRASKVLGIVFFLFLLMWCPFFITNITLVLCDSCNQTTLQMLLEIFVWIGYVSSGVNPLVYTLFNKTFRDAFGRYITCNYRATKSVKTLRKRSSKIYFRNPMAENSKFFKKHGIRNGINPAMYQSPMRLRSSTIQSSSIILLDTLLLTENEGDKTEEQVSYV
5-hydroxytryptamine receptor 1B, sequence (P28222 whole entry): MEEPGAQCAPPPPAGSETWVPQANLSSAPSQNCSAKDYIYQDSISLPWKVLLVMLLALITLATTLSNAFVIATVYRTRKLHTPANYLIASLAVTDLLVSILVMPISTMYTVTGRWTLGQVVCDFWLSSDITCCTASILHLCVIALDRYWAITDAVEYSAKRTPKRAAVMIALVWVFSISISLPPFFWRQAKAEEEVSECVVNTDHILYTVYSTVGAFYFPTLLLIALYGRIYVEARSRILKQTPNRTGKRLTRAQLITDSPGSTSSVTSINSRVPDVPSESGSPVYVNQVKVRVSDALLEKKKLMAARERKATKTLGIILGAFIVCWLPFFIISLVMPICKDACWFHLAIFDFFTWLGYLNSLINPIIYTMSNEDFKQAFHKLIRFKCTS
5-hydroxytryptamine receptor 1D, sequence (P28221 whole entry): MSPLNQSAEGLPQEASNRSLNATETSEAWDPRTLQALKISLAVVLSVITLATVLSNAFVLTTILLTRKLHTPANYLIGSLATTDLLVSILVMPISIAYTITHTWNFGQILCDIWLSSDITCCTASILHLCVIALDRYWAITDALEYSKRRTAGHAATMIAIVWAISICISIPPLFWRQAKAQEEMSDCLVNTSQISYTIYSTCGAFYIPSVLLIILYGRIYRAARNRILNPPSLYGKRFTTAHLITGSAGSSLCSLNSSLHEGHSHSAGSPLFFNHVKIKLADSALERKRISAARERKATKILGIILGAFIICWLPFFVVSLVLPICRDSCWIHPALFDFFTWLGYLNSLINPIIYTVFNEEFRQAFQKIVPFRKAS
5-hydroxytryptamine receptor 7, sequence (P34969 whole entry): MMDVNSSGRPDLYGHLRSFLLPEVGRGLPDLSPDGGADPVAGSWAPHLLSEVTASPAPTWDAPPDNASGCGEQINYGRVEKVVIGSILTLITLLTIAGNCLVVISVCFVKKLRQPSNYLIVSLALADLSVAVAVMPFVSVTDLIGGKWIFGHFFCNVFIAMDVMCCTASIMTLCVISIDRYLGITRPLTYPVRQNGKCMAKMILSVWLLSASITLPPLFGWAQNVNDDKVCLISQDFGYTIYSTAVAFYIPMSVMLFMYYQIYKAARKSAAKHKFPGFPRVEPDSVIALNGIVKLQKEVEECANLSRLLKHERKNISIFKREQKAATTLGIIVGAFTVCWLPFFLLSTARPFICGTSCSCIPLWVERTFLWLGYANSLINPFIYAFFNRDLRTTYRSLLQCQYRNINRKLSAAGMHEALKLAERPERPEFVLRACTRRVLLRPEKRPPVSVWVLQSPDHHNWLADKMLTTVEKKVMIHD
5-hydroxytryptamine receptor 6, sequence (P50406 whole entry): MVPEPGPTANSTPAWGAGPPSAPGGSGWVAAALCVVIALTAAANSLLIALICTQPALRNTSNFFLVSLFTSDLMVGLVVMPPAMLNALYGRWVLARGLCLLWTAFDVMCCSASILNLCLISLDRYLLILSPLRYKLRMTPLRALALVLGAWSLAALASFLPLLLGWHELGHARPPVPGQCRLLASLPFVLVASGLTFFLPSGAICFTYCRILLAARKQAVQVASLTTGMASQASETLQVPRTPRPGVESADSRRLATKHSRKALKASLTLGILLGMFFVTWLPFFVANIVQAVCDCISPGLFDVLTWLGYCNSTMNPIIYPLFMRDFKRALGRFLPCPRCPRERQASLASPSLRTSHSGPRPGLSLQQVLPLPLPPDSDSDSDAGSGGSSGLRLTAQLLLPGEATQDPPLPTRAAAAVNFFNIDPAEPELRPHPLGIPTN
5-hydroxytryptamine receptor 2A, sequence (P28223 whole entry): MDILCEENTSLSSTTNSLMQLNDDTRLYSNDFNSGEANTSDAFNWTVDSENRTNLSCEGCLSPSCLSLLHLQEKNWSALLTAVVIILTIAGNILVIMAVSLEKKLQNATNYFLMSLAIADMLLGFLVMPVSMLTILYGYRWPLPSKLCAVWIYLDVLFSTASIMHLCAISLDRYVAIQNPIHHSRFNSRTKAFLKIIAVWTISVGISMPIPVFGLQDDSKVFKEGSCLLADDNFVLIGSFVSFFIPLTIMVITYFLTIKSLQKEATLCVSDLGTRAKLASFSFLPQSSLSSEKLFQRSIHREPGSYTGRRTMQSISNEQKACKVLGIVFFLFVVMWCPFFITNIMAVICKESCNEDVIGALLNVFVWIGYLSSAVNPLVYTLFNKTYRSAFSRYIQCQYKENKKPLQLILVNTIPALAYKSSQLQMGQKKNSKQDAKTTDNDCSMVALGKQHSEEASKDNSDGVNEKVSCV

Row | Structure (SMILES) | inhibition [1] [%] | inhibition [2] [%] | Ki [6] [nM] | further results
1 | Fc1cccc2c1nc(OCC1CCN(CCCC(F)(F)F)CC1)c1cccnc12 | 100 | 80 | 4.2 | Ki [3]: > 10000 nM; Ki [4]: 980 nM; Ki [5]: > 10000 nM; Ki [7]: 190 nM; Ki [8]: > 10000 nM; Ki [9]: > 10000 nM; Ki [10]: > 10000 nM; Ki [11]: 8700 nM; Kb [12]: 0.199 nM; Ki [13]: 0.2 nM; Ki [14]: 2600 nM; Ki [15]: > 10000 nM
2 | CCCN1CCC(COc2nc3c(F)cccc3c3ncccc23)CC1 |  | 94 |  | 
3 | Fc1cccc2c1nc(OCC1CCN(CC(F)F)CC1)c1cccnc12 | 100 | 26 | 91.4 | 
4 | Fc1cccc2c1nc(OCC1CCN(CC(F)(F)F)CC1)c1ccccc12 | 3 | 0 |  | 
5 | Fc1cccc2c1nc(OCC1CCN(CCC(F)(F)F)CC1)c1cccnc12 | 100 | 80 | 9 | Ki [3]: > 10000 nM; Ki [4]: > 10000 nM; Ki [5]: > 10000 nM; Ki [7]: 230 nM; Ki [8]: > 10000 nM; Ki [9]: > 10000 nM; Ki [10]: > 10000 nM; Ki [11]: > 10000 nM; Kb [12]: 0.079 nM; Ki [13]: 0.11 nM; Ki [14]: 1200 nM; Ki [15]: > 10000 nM
6 | Fc1cccc2c1nc(OCC1CCN(CC(F)(F)C(F)(F)F)CC1)c1ccccc12 | 4 | 0 |  | 

The next lines start with results.

Row | inhibition [1] [%] | inhibition [2] [%] | Ki [6] [nM] | Structure (SMILES) | further results
7 | 1 | 0 |  | FC(F)(F)C(F)(F)CN1CCC(COc2nc3ccccc3c3ccccc23)CC1 | 
8 | 93 | 0 |  | Fc1cccc2c1nc(OCC1CCN(CC(F)F)CC1)c1ccccc12 | 
9 | 58 | 0 |  | FC(F)CN1CCC(COc2nc3ccccc3c3ccccc23)CC1 | 
10 | 1 | 0 |  | FC(F)(F)CN1CCC(COc2nc3ccccc3c3ccccc23)CC1 | 
11 | 100 | 49 | 14.1 | Fc1cccc2c1nc(OCC1CCN(CCCC(F)(F)F)CC1)c1ccccc12 | 
12 | 100 | 61 | 22 | Fc1cccc2c1nc(OCC1CCN(CCC(F)(F)F)CC1)c1ccccc12 | 
